Changes are numbered by the printed parent chain.
Assays:
[1] = biological target: T1, 6XHIS-ARV1-N98 E70A (Homo sapiens, UniProt Q9H2C2, E70A); assay: Lipid overlay far western, site-directed mutant; format: binding; settings: compared to the ARV1-N98 protein
T1 construct: Expressing amino-terminal 98 amino acids of ARV1; made in house; host or cells: E. coli BL21 (pET-28a(+))
Method in brief: (§1)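 Binding of GST- or His-tagged proteins (0.5 μg/ml, 1 h, room temperature, 0.1% Triton X-100 present) to immobilized lipids is visualized by anti-tag immunodetection and chemiluminescence.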

[2] = biological target: T2, 6XHIS-ARV1-N98 D72A (Homo sapiens, UniProt Q9H2C2, D72A); assay: Lipid overlay far western, site-directed mutant; format: binding; settings: compared to the ARV1-N98 protein
T2 construct: Expressing amino-terminal 98 amino acids of ARV1; made in house; host or cells: E. coli BL21 (pET-28a(+))
T2 sequence (Q9H2C2 1-98 D72A): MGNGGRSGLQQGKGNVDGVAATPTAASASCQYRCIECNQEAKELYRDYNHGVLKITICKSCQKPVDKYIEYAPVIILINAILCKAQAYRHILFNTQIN
Method in brief: as §1

[3] = biological target: T3, 6XHIS-ARV1-N98 N94Q (Homo sapiens, UniProt Q9H2C2, N94Q); assay: Lipid overlay far western, site-directed mutant; format: binding; settings: compared to the ARV1-N98 protein
T3 construct: Expressing amino-terminal 98 amino acids of ARV1; made in house; host or cells: E. coli BL21 (pET-28a(+))
T3 sequence (Q9H2C2 1-98 N94Q): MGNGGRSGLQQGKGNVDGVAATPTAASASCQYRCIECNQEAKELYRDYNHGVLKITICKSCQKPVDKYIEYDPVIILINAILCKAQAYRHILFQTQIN
Method in brief: as §1

[4] = biological target: T4, GST-ARV1-N98 C58/C61A (Homo sapiens, UniProt Q9H2C2, C58A/C61A); assay: Liposome binding assay, site-directed mutant; settings: PC:PL, sulfatide or PI(4)P liposomes
T4 construct: Expresses amino-terminal 98 amino acids of ARV1; made in house; host or cells: E. coli BL21 (pGEX-4T1)
T4 sequence (Q9H2C2 1-98 C58A/C61A): T3 sequence (Q9H2C2 1-98 N94Q) with C58A, C61A, Q94N
Description: (§2) Lyophilized lipids were reconstituted in chloroform at 10 mg/ml and stored in glass tubes with Teflon tops at −20 °C until use. One milliliter of 10 mg/ml stock was dried under a stream of nitrogen in a glass tube until a lipid cake/film was formed. The lipid cake was then rehydrated in BLT rehydration buffer (5 mM Tris/HCl, pH 7.4, containing 150 mM NaCl) to a concentration of 1 mg/ml. Lipid suspensions were subjected to three freeze/thaw cycles using a dry ice ethanol/[…] water bath to encapsulate the buffer and improve liposome formation. The suspension and lipid extruder were equilibrated to temperature for 10 min and liposomes were extruded using […] polycarbonate membranes (Avestin). Liposomes were made by mixing stock lipid PL (1 mg/ml) with PC (10 mg/ml).
(§3) Sulfatide liposomes were generated as previously described ([94]). All lipids were resuspended in organic solvents as per manufacturer’s instructions. Liposomes were prepared with mixing PC:PE:cholesterol:sulfatides (1:1:1:4) and subsequently dried down by lyophilization to obtain lipid films. Lipids were hydrated in 20 mM Tris–HCL, pH 6.8, containing 100 mM NaCl at a concentration of 1 mg/ml.
(§4) PI(4)P liposomes were generated as described by Knodler et al. ([95]), with some modifications. Briefly, liposomes were generated at a lipid concentration of 10 mg/ml. Liposomes contained PC (60%), PI (30%), PE (8%), and PI(4)P (2%). Lipid solution was dried down and resuspended in liposome buffer (20 mM Hepes–HCL, pH 7.4, containing 1 mM EDTA and 50 mM potassium acetate). Liposomes were formed by sonication on ice.
(§5) Liposomes were serial diluted in floatation buffer (100 mM NaCl, 2 mM EDTA, pH 5.5) to a final concentration of 0.1 mg/ml. Nine hundred microliters of liposome solution was placed in clear ultracentrifuge tubes and mixed with 100 μl of 0.01 μg/ml of protein. The liposome/protein solution was incubated at room temperature for 1 h with occasional shaking. An initial 100 μl of liposome/protein solution (liposomes) was removed and the remaining 900 μl was centrifuged at 50,000g for 20 min at 4 °C. The pellet was resuspended in 800 μl of fresh floatation buffer, centrifuged as above, and 800 μl of supernatant was removed (wash 1). This was repeated a second time and again 800 μl of supernatant was removed (wash 2). The final pellet was resuspended in 100 μl of floatation buffer plus SDS treatment buffer (pellet). Thirty microliters of each fraction was run on a 15% SDS-PAGE gel and probed with an anti-GST monoclonal antibody at a 1:1500 dilution.

[5] = biological target: T5, GST-ARV1-N98 N94A (Homo sapiens, UniProt Q9H2C2, N94A); assay: Liposome binding assay, site-directed mutant; settings: PC:PL, sulfatide or PI(4)P liposomes
T5 construct: Expresses amino-terminal 98 amino acids of ARV1; made in house; host or cells: E. coli BL21 (pGEX-4T1)
T5 sequence (Q9H2C2 1-98 N94A): T3 sequence (Q9H2C2 1-98 N94Q) with Q94A
Description: as §2, §3, §4, §5

[6] = biological target: T6, GST-ARV1-N98 K67A (Homo sapiens, UniProt Q9H2C2, K67A); assay: Liposome binding assay, site-directed mutant; settings: PC:PL, sulfatide liposomes
T6 construct: Expresses amino-terminal 98 amino acids of ARV1; made in house; host or cells: E. coli BL21 (pGEX-4T1)
T6 sequence (Q9H2C2 1-98 K67A): T3 sequence (Q9H2C2 1-98 N94Q) with K67A, Q94N
Description: as §2, §3, §4, §5

[7] = biological target: T7, 6XHIS-ARV1-N98 C58/C61A (Homo sapiens, UniProt Q9H2C2, C58A/C61A); assay: Lipid overlay far western, site-directed mutant; format: binding; settings: compared to the ARV1-N98 protein
T7 construct: Expressing amino-terminal 98 amino acids of ARV1; made in house; host or cells: E. coli BL21 (pET-28a(+))
T7 sequence (Q9H2C2 1-98 C58A/C61A): T3 sequence (Q9H2C2 1-98 N94Q) with C58A, C61A, Q94N
Method in brief: as §1

[8] = biological target: T8, 6XHIS-ARV1-N98 K54/K59A (Homo sapiens, UniProt Q9H2C2, K54A/K59A); assay: Lipid overlay far western, site-directed mutant; format: binding; settings: compared to the ARV1-N98 protein
T8 construct: Expressing amino-terminal 98 amino acids of ARV1; made in house; host or cells: E. coli BL21 (pET-28a(+))
T8 sequence (Q9H2C2 1-98 K54A/K59A): T3 sequence (Q9H2C2 1-98 N94Q) with K54A, K59A, Q94N
Method in brief: as §1

[9] = biological target: T9, GST-ARV1-N70 (Homo sapiens, UniProt Q9H2C2); assay: Lipid overlay far western, truncation; format: binding; settings: compared to ARV1-N98
T9 construct: Expresses amino-terminal 70 amino acids of ARV1; made in house; host or cells: E. coli BL21 (pGEX-4T1)
T9 sequence (Q9H2C2 1-70): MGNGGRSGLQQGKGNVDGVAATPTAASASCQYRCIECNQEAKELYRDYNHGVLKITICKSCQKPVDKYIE
Method in brief: as §1

T1 sequence (Q9H2C2 1-98 E70A): as the sequence (Q9H2C2 1-98 D72A) above, with E70A, A72D counted along it

Row | Compound | change of lipid-protein interaction [1] | change of lipid-protein interaction [2] | change of lipid-protein interaction [3] | liposome binding [4] | liposome binding [5] | liposome binding [6] | change of lipid-protein interaction [7] | change of lipid-protein interaction [8] | change of lipid-protein interaction [9]
1 | CCCCC/C=C\C/C=C\CCCCCCCC(=O)OC[C@H](COP(=O)(O)OCC(O)COP(=O)(O)OC[C@@H](COC(=O)CCCCCCC/C=C\C/C=C\CCCCC)OC(=O)CCCCCCC/C=C\C/C=C\CCCCC)OC(=O)CCCCCCC/C=C\C/C=C\CCCCC (stereo partly drawn) [CL, cardiolipin] | weakened | weakened | more strongly |  |  |  |  |  | 
2 | CCCCCCCCCCCCCCCC(=O)OC[C@H](COP(=O)(O)O)OC(=O)CCCCCCCCCCCCCCC [PA, phosphatidic acid] |  |  |  | did not bind |  |  |  |  | 
3 | CCCCCCCC/C=C\CCCCCCCC(=O)OC[C@H](COP(=O)(O)OCC(O)CO)OC(=O)CCCCCCC/C=C\CCCCCCCC (stereo partly drawn) [PG, phosphatidylglycerol] | weakened | weakened | more strongly |  | very weak | unable to bind | weakened or eliminated | abolished | 
4 | CCCCCCCCCCCCCCCCCC(=O)OC[C@H](COP(=O)(O)OC[C@H](N)C(=O)O)OC(=O)CCCCCCCCCCCCCCCCC [PS, phosphatidylserine] |  |  |  |  |  |  | enhanced |  | reduced interactions
5 | CCCCCC(=O)O[C@H](COC(=O)CCCCCNC(=O)CCCC[C@@H]1SC[C@@H]2NC(=O)N[C@@H]21)COP(=O)(O)O[C@H]1[C@H](O)[C@@H](O)[C@H](OP(=O)(O)O)[C@@H](O)[C@H]1O [reference compound] |  |  |  | did not bind | lost the ability to bind |  |  | increasing the interaction | enhanced
6 | phosphatidylethanolamine [PE] |  |  |  |  |  | showed binding |  |  | 
